Reference: PubChem BioAssay (NCI)
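1) Cells in 96-well plates. 2) Compound, 48 h, 5 concentrations. 3) Linear interpolation between surrounding doses. 4) Unreached endpoint = highest concentration. TGI: total growth inhibition.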

Legend:
Test in all cases: inhibition of tumour cell growth, NCI panel, 48 h
[1] = tested on: ACHN renal
[2] = tested on: CAKI-1 renal
[3] = tested on: CCRF-CEM leukemia
[4] = tested on: COLO 205 colon
[5] = tested on: DLD-1 colon
[6] = tested on: DMS 114 small cell lung
[7] = tested on: DMS 273 small cell lung
[8] = tested on: EKVX NSCLC
[9] = tested on: HCC-2998 colon
[10] = tested on: HCT-116 colon
[11] = tested on: HCT-15 colon
[12] = tested on: HOP-62 NSCLC
[13] = tested on: HOP-92 NSCLC
[14] = tested on: HT29 colon
[15] = tested on: IGROV1 ovarian
[16] = tested on: K-562 leukemia
[17] = tested on: KM12 colon
[18] = tested on: KM20L2 colon
[19] = tested on: LOX IMVI melanoma
[20] = tested on: LXFL 529 NSCLC
[21] = tested on: M14 melanoma
[22] = tested on: M19-MEL melanoma
[23] = tested on: MALME-3M melanoma
[24] = tested on: MOLT-4 leukemia
[25] = tested on: NCI-H226 lung
[26] = tested on: NCI-H23 lung
[27] = tested on: NCI-H460 lung
[28] = tested on: NCI-H522 lung
[29] = tested on: OVCAR-3 ovarian
[30] = tested on: OVCAR-4 ovarian
[31] = tested on: OVCAR-5 ovarian
[32] = tested on: OVCAR-8 ovarian
[33] = tested on: RPMI-8226 leukemia
[34] = tested on: RXF 393 renal
[35] = tested on: SF-268 CNS
[36] = tested on: SF-295 CNS
[37] = tested on: SK-MEL-2 melanoma
[38] = tested on: SK-MEL-28 melanoma
[39] = tested on: SK-MEL-5 melanoma
[40] = tested on: SK-OV-3 ovarian
[41] = tested on: SN12C renal
[42] = tested on: SW-620 colon
[43] = tested on: TK-10 renal
[44] = tested on: U251 CNS
[45] = tested on: UACC-257 melanoma
[46] = tested on: UACC-62 melanoma
[47] = tested on: UO-31 renal
[48] = tested on: 786-0 renal
[49] = tested on: A498 renal
[50] = tested on: A549 NSCLC
[51] = tested on: BT-549 breast
[52] = tested on: DU-145 prostate
[53] = tested on: HL-60(TB) leukemia
[54] = tested on: HS 578T breast
[55] = tested on: MCF7 breast
[56] = tested on: MDA-MB-231 breast
[57] = tested on: MDA-MB-435
[58] = tested on: MDA-N
[59] = tested on: NCI/ADR-RES ovarian
[60] = tested on: PC-3 prostate
[61] = tested on: SF-539 CNS
[62] = tested on: SNB-19 CNS
[63] = tested on: SNB-75 CNS
[64] = tested on: SR leukemia
[65] = tested on: T-47D breast

`CN1C(=O)CN2C(Cl)(Cl)C2(c2ccccc2)c2cc(Cl)ccc21` (centres undefined) was tested, and the TGI [1] was > 100 µM, the TGI [2] was > 100 µM and the TGI [3] was > 100 µM. The TGI [4] was > 100 µM, the TGI [5] was > 100 µM and the TGI [6] was > 100 µM. For the same compound, the TGI [7] was > 100 µM, the TGI [8] was > 100 µM and the TGI [9] was > 100 µM. The TGI [10] was > 100 µM, the TGI [11] was > 100 µM and the TGI [12] was > 100 µM. For the same compound, the TGI [13] was 88.2 µM, the TGI [14] was > 100 µM and the TGI [15] was > 100 µM. For the same compound, the TGI [16] was > 100 µM, the TGI [17] was > 100 µM and the TGI [18] was > 100 µM. The TGI [19] was > 100 µM, the TGI [20] was > 100 µM and the TGI [21] was > 100 µM. The TGI [22] was > 100 µM, the TGI [23] was > 100 µM and the TGI [24] was 91.9 µM. For the same compound, the TGI [25] was > 100 µM, the TGI [26] was > 100 µM and the TGI [27] was > 100 µM. The TGI [28] was > 100 µM, the TGI [29] was > 100 µM and the TGI [30] was > 100 µM. The TGI [31] was > 100 µM, the TGI [32] was > 100 µM and the TGI [33] was > 100 µM. For the same compound, the TGI [34] was > 100 µM, the TGI [35] was > 100 µM and the TGI [36] was > 100 µM. The TGI [37] was > 100 µM, the TGI [38] was > 100 µM and the TGI [39] was > 100 µM. For the same compound, the TGI [40] was > 100 µM, the TGI [41] was > 100 µM and the TGI [42] was > 100 µM. For the same compound, the TGI [43] was > 100 µM, the TGI [44] was > 100 µM and the TGI [45] was > 100 µM. The TGI [46] was > 100 µM and the TGI [47] was > 100 µM.
For `O=C1C=CC(=O)N1c1ccc(I)cc1`, the TGI [48] was 20.7 µM, the TGI [49] was 39.2 µM and the TGI [50] was 47 µM. For the same compound, the TGI [1] was 33.3 µM, the TGI [51] was 36 µM and the TGI [2] was 34.3 µM. It also gave a TGI [3] of 12 µM, a TGI [4] of 13.9 µM and a TGI [52] of 38 µM. It also gave a TGI [8] of 41.2 µM, a TGI [9] of 35.1 µM and a TGI [10] of 30.9 µM. It also gave a TGI [11] of 33.9 µM, a TGI [53] of 9.73 µM and a TGI [12] of 38.2 µM. The TGI [13] was 46.6 µM, the TGI [54] was 66.3 µM and the TGI [14] was 45.1 µM. The TGI [15] was > 67.3 µM, the TGI [16] was 53.5 µM and the TGI [17] was 45.8 µM. The TGI [19] was 42.9 µM, the TGI [21] was 31.2 µM and the TGI [23] was 33.1 µM. For the same compound, the TGI [55] was 45.3 µM, the TGI [56] was 52.7 µM and the TGI [57] was 34.7 µM. It also gave a TGI [58] of 30.1 µM, a TGI [24] of 7.49 µM and a TGI [25] of 46.3 µM. The TGI [26] was 51.2 µM, the TGI [27] was > 86.3 µM and the TGI [28] was 47.4 µM. It also gave a TGI [59] of 82.3 µM, a TGI [29] of 52.7 µM and a TGI [30] of 60.2 µM. For the same compound, the TGI [31] was 47.6 µM, the TGI [32] was > 100 µM and the TGI [60] was 40.7 µM. For the same compound, the TGI [33] was 22.1 µM, the TGI [34] was 33.6 µM and the TGI [35] was > 77.5 µM. The TGI [36] was 55.5 µM, the TGI [61] was > 57.6 µM and the TGI [37] was 40.7 µM. It also gave a TGI [38] of 35.3 µM, a TGI [39] of 34.1 µM and a TGI [40] of 32.5 µM. The TGI [41] was 48 µM, the TGI [62] was > 61.5 µM and the TGI [63] was 44.1 µM. For the same compound, the TGI [64] was 45.5 µM, the TGI [42] was 49.3 µM and the TGI [65] was 72.3 µM. The TGI [43] was 30.3 µM, the TGI [44] was > 54.9 µM and the TGI [45] was 32.5 µM. It also gave a TGI [46] of 31.8 µM and a TGI [47] of 38.5 µM.
With `Cc1cc(=O)oc2cc(OC(=O)Nc3ccccc3)ccc12` the TGI [48] was > 100 µM, the TGI [49] was > 100 µM and the TGI [50] was > 100 µM. The TGI [1] was > 100 µM, the TGI [51] was > 100 µM and the TGI [2] was > 100 µM. The TGI [3] was 74.2 µM, the TGI [4] was > 100 µM and the TGI [52] was > 100 µM. The TGI [8] was > 100 µM, the TGI [9] was > 100 µM and the TGI [10] was > 100 µM. The TGI [11] was > 100 µM, the TGI [53] was 44.9 µM and the TGI [12] was > 100 µM. The TGI [13] was 75.4 µM, the TGI [54] was > 100 µM and the TGI [14] was > 100 µM. The TGI [15] was > 100 µM, the TGI [16] was > 100 µM and the TGI [17] was > 100 µM. The TGI [19] was > 100 µM, the TGI [21] was > 100 µM and the TGI [23] was > 100 µM. For the same compound, the TGI [55] was > 100 µM, the TGI [56] was > 100 µM and the TGI [57] was > 100 µM. The TGI [58] was > 100 µM, the TGI [24] was > 100 µM and the TGI [25] was > 100 µM. For the same compound, the TGI [26] was > 100 µM, the TGI [27] was > 100 µM and the TGI [28] was > 100 µM. For the same compound, the TGI [59] was > 100 µM, the TGI [29] was > 100 µM and the TGI [30] was > 100 µM. For the same compound, the TGI [31] was > 100 µM, the TGI [32] was > 100 µM and the TGI [60] was > 100 µM. For the same compound, the TGI [33] was 62.4 µM, the TGI [34] was > 100 µM and the TGI [35] was > 100 µM. The TGI [36] was > 100 µM, the TGI [61] was > 100 µM and the TGI [37] was > 100 µM. For the same compound, the TGI [38] was > 100 µM, the TGI [39] was > 100 µM and the TGI [40] was > 100 µM. The TGI [41] was > 100 µM, the TGI [62] was > 100 µM and the TGI [63] was > 100 µM. For the same compound, the TGI [64] was 83.5 µM, the TGI [42] was > 100 µM and the TGI [65] was > 100 µM. For the same compound, the TGI [43] was > 100 µM, the TGI [44] was > 100 µM and the TGI [45] was > 100 µM. The TGI [46] was > 100 µM and the TGI [47] was > 100 µM.
In the case of `COc1cc2c(cc1O)Cc1c-2[n+](C)cc2cc(OC)c(OC)cc12`, the TGI [48] was > 44.7 µM, the TGI [49] was > 100 µM and the TGI [50] was > 100 µM. The TGI [1] was > 100 µM, the TGI [51] was > 57.9 µM and the TGI [2] was > 100 µM. For the same compound, the TGI [3] was > 24.9 µM, the TGI [4] was > 100 µM and the TGI [52] was > 100 µM. For the same compound, the TGI [8] was > 100 µM, the TGI [9] was > 100 µM and the TGI [10] was > 100 µM. For the same compound, the TGI [11] was > 100 µM, the TGI [53] was > 100 µM and the TGI [12] was > 100 µM. For the same compound, the TGI [13] was > 100 µM, the TGI [54] was > 100 µM and the TGI [14] was > 100 µM. The TGI [15] was > 100 µM, the TGI [16] was > 100 µM and the TGI [17] was > 100 µM. The TGI [19] was > 100 µM, the TGI [21] was > 100 µM and the TGI [23] was > 100 µM. For the same compound, the TGI [55] was > 100 µM, the TGI [56] was > 100 µM and the TGI [57] was > 100 µM. For the same compound, the TGI [58] was > 100 µM, the TGI [24] was > 39.4 µM and the TGI [25] was > 100 µM. For the same compound, the TGI [26] was > 100 µM, the TGI [27] was > 100 µM and the TGI [28] was > 100 µM. For the same compound, the TGI [59] was > 100 µM, the TGI [29] was > 100 µM and the TGI [30] was > 100 µM. For the same compound, the TGI [31] was > 100 µM, the TGI [32] was > 100 µM and the TGI [60] was > 100 µM. For the same compound, the TGI [33] was > 100 µM, the TGI [34] was > 100 µM and the TGI [35] was > 100 µM. For the same compound, the TGI [36] was > 100 µM, the TGI [61] was 7.46 µM and the TGI [37] was > 100 µM. The TGI [38] was > 100 µM, the TGI [39] was 23.3 µM and the TGI [40] was > 100 µM. The TGI [41] was > 100 µM, the TGI [62] was > 50 µM and the TGI [63] was > 100 µM. The TGI [64] was > 22.1 µM, the TGI [42] was > 100 µM and the TGI [65] was > 100 µM. For the same compound, the TGI [43] was > 100 µM, the TGI [44] was 21.5 µM and the TGI [45] was > 100 µM. For the same compound, the TGI [46] was > 77.9 µM and the TGI [47] was > 100 µM.
